Each structure is given as a SMILES string. pEC50: −log10 of the molar value.

T1 sequence (P13569 with tags, fused parts or gaps DEL508-508): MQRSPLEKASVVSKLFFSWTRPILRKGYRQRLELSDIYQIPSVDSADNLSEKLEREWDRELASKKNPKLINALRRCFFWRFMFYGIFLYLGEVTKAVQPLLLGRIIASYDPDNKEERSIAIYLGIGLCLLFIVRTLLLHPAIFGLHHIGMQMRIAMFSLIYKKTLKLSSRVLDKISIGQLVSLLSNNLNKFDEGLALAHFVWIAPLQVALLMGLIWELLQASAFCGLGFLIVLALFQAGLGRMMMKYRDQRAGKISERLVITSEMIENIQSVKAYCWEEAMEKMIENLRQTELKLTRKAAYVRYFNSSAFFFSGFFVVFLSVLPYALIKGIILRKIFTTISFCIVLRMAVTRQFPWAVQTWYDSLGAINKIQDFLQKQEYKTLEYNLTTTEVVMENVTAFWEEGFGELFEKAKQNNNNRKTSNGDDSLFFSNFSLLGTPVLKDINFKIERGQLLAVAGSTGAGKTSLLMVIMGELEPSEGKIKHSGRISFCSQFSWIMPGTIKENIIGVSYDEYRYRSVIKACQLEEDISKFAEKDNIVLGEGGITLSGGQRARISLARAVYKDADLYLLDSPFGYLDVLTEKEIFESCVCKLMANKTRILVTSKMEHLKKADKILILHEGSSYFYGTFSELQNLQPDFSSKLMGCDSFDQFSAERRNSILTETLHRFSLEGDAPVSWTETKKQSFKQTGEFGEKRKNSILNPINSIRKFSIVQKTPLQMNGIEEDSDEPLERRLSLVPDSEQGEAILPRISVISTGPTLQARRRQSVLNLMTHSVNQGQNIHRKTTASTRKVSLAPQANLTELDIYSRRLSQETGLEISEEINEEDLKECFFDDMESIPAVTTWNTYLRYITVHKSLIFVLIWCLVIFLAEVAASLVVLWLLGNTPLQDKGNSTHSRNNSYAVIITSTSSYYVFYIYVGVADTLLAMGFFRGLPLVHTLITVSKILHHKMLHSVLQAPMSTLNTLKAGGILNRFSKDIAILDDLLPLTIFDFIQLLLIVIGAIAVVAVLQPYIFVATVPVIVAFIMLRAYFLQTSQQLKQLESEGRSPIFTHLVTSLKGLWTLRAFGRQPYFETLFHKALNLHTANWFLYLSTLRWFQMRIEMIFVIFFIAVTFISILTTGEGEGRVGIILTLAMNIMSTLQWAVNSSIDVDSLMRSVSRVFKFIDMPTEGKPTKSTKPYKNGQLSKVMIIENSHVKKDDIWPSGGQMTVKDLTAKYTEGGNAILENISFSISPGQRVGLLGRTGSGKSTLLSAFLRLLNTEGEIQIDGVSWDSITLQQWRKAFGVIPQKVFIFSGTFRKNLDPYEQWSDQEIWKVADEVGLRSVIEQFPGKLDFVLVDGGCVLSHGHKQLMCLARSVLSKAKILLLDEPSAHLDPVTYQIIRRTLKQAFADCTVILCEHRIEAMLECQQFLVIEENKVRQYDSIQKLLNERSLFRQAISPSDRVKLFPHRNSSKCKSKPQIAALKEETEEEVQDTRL

This experiment has as its target T1, mutant CFTR (Homo sapiens, UniProt P13569, DEL508-508).
T1 construct: expressed in transfected cells
Briefly: Fluorescence (HS-YFP) assay for CFTR activity, corrector assay. In kind it is cell-based. The note with it: CFBE41o- and FRT cells with stable expression of mutant CFTR, read-out: activity (EC50).
On to `CN(C(=O)c1cccc(-n2nc(C(F)(F)F)c3c2C(Oc2ccc(C(=O)O)nc2)CCC3)c1)c1ccc2c(c1)OC(F)(F)O2` (single isomer, unassigned) [Compound 185, (S) or (R)-5-[[-1-[3-[(2,2-Difluoro-1,3-benzodioxol-5-yl)-methyl-carbamoyl]phenyl]-3-(trifluoromethyl)-4,5,6,7-tetrahydroindazol-7-yl]oxy]pyridine-2-carboxylic acid], for which the pEC50 – broadly, the negative decadic logarithm of the EC50, by convention in mol/L – was over 6.00.
To `CN(C(=O)c1cccc(-n2nc(C(F)(F)F)c3c2C(Oc2ccc(C(=O)O)nc2)CCC3)c1)c1ccc2c(c1)OC(F)(F)O2` (single isomer, unassigned) [Compound 186, (R) or (S)-5-[[1-[3-[(2,2-Difluoro-1,3-benzodioxol-5-yl)-methyl-carbamoyl]phenyl]-3-(trifluoromethyl)-4,5,6,7-tetrahydroindazol-7-yl]oxy]pyridine-2-carboxylic acid] belongs over 6.00; to `CN(C(=O)c1cccc(-n2nc(C(F)(F)F)c3c2C(Oc2cccc(C(=O)O)c2)CCC3)c1)c1ccc2c(c1)OC(F)(F)O2` (single isomer, unassigned) [Compound 188, (S) or (R)-3-[[1-[3-[(2,2-Difluoro-1,3-benzodioxol-5-yl)-methyl-carbamoyl]phenyl]-3-(trifluoromethyl)-4,5,6,7-tetrahydroindazol-7-yl]oxy]benzoic acid], over 6.00; to `CN(C(=O)c1cccc(-n2nc(C(F)(F)F)c3c2C(Oc2cccc(C(=O)O)c2)CCC3)c1)c1ccc2c(c1)OC(F)(F)O2` (single isomer, unassigned) [Compound 190, (R) or (S)-3-[[1-[3-[(2,2-Difluoro-1,3-benzodioxol-5-yl)-methyl-carbamoyl]phenyl]-3-(trifluoromethyl)-4,5,6,7-tetrahydroindazol-7-yl]oxy]benzoic acid], over 6.00.
To `CN(C(=O)c1cccc(-n2nc(C(F)(F)F)c3c2C(Oc2ccc(C(=O)O)cn2)CCC3)c1)c1ccc2c(c1)OC(F)(F)O2` (single isomer, unassigned) [Compound 192, (S) or (R)-6-[[1-[3-[(2,2-Difluoro-1,3-benzodioxol-5-yl)-methyl-carbamoyl]phenyl]-3-(trifluoromethyl)-4,5,6,7-tetrahydroindazol-7-yl]oxy]pyridine-3-carboxylic acid] belongs over 6.00.
The same measure for `CN(C(=O)c1cccc(-n2nc(C(F)(F)F)c3c2C(Oc2ccc(C(=O)O)cn2)CCC3)c1)c1ccc2c(c1)OC(F)(F)O2` (single isomer, unassigned) [Compound 194, (R) or (S)-6-[[1-[3-[(2,2-Difluoro-1,3-benzodioxol-5-yl)-methyl-carbamoyl]phenyl]-3-(trifluoromethyl)-4,5,6,7-tetrahydroindazol-7-yl]oxy]pyridine-3-carboxylic acid]: over 6.00.
In the case of `CN(C(=O)c1cccc(-n2nc(C(F)(F)F)c3c2C(Oc2cc(C(=O)O)ccn2)CCC3)c1)c1ccc2c(c1)OC(F)(F)O2` (single isomer, unassigned) [Compound 196, (S) or (R)-2-[[1-[3-[(2,2-Difluoro-1,3-benzodioxol-5-yl)-methyl-carbamoyl]phenyl]-3-(trifluoromethyl)-4,5,6,7-tetrahydroindazol-7-yl]oxy]pyridine-4-carboxylic acid], the pEC50 is over 6.00.
The same measure for `CN(C(=O)c1cccc(-n2nc(C(F)(F)F)c3c2C(Oc2cc(C(=O)O)ccn2)CCC3)c1)c1ccc2c(c1)OC(F)(F)O2` (single isomer, unassigned) [Compound 198, (R) or (S)-2-[[1-[3-[(2,2-Difluoro-1,3-benzodioxol-5-yl)-methyl-carbamoyl]phenyl]-3-(trifluoromethyl)-4,5,6,7-tetrahydroindazol-7-yl]oxy]pyridine-4-carboxylic acid]: over 6.00.
With `CN(C(=O)c1cccc(-n2nc(C(F)(F)F)c3c2C(Oc2ccc(C(=O)O)cc2)COC3)c1)c1ccc2c(c1)OC(F)(F)O2` (single isomer, unassigned) [Compound 205, (R) or (S)-4-[[1-[3-[(2,2-Difluoro-1,3-benzodioxol-5-yl)-methyl-carbamoyl]phenyl]-3-(trifluoromethyl)-6,7-dihydro-4H-pyrano[4,3-c]pyrazol-7-yl]oxy]benzoic acid], the pEC50 is over 6.00.
The same measure for `CN(C(=O)c1cccc(-n2nc(C(F)(F)F)c3c2C(Oc2ccc(C(=O)O)cc2)COC3)c1)c1ccc2c(c1)OC(F)(F)O2` (single isomer, unassigned) [Compound 206, (S) or (R)-4-[[1-[3-[(2,2-Difluoro-1,3-benzodioxol-5-yl)-methyl-carbamoyl]phenyl]-3-(trifluoromethyl)-6,7-dihydro-4H-pyrano[4,3-c]pyrazol-7-yl]oxy]benzoic acid]: over 6.00; for `Cc1cc2ncc(N(C)C(=O)c3cccc(-n4nc(C(F)(F)F)c5c4[C@H](Oc4ccc(C(=O)O)cc4)CCC5)c3)cn2n1` (single isomer, unassigned) [Compound 217, (S) or (R)-4-[[1-[3-[Methyl-(2-methylpyrazolo[1,5-a]pyrimidin-6-yl)carbamoyl]phenyl]-3-(trifluoromethyl)-4,5,6,7-tetrahydroindazol-7-yl]oxy]benzoic acid]: over 6.00; for `Cc1cc2ncc(N(C)C(=O)c3cccc(-n4nc(C(F)(F)F)c5c4[C@@H](Oc4ccc(C(=O)O)cc4)CCC5)c3)cn2n1` (single isomer, unassigned) [Compound 218, (R) or (S)-4-[[1-[3-[Methyl-(2-methylpyrazolo[1,5-a]pyrimidin-6-yl)carbamoyl]phenyl]-3-(trifluoromethyl)-4,5,6,7-tetrahydroindazol-7-yl]oxy]benzoic acid]: 5.70 to 6.00.
To `CN(C(=O)c1cccc(-n2nc(C(F)(F)F)c3c2C(Oc2cncc(C(=O)O)c2)CCC3)c1)c1ccc2c(c1)OC(F)(F)O2` (single isomer, unassigned) [Compound 271, (S) or (R)-5-[[1-[3-[(2,2-Difluoro-1,3-benzodioxol-5-yl)-methyl-carbamoyl]phenyl]-3-(trifluoromethyl)-4,5,6,7-tetrahydroindazol-7-yl]oxy]pyridine-3-carboxylic acid] belongs over 6.00.
The same measure for `CN(C(=O)c1cccc(-n2nc(C(F)(F)F)c3c2C(Oc2cncc(C(=O)O)c2)CCC3)c1)c1ccc2c(c1)OC(F)(F)O2` (single isomer, unassigned) [Compound 272, (R) or (S)-5-[[1-[3-[(2,2-Difluoro-1,3-benzodioxol-5-yl)-methyl-carbamoyl]phenyl]-3-(trifluoromethyl)-4,5,6,7-tetrahydroindazol-7-yl]oxy]pyridine-3-carboxylic acid]: 5.70 to 6.00; for `CN(C(=O)c1cccc(-n2nc(C(F)(F)F)c3c2C(Oc2ccc(C(=O)O)cc2)CCC3)c1)c1cnc2c(c1)OCC2` (single isomer, unassigned) [Compound 275, (S) or (R)-4-[[1-[3-[2,3-Dihydrofuro[3,2-b]pyridin-6-yl(methyl)carbamoyl]phenyl]-3-(trifluoromethyl)-4,5,6,7-tetrahydroindazol-7-yl]oxy]benzoic acid]: over 6.00; for `CN(C(=O)c1cccc(-n2nc(C(F)(F)F)c3c2C(Oc2ccc(C(=O)O)cc2)CCC3)c1)c1cnc2c(c1)OCC2` (single isomer, unassigned) [Compound 276, (R) or (S)-4-[[1-[3-[2,3-Dihydrofuro[3,2-b]pyridin-6-yl(methyl)carbamoyl]phenyl]-3-(trifluoromethyl)-4,5,6,7-tetrahydroindazol-7-yl]oxy]benzoic acid]: 5.70 to 6.00.
For the compound `CN(C(=O)c1cccc(-n2nc(C(F)(F)F)c3c2C(Oc2ccc(C(=O)O)cn2)COC3)c1)c1ccc2c(c1)OC(F)(F)O2` (single isomer, unassigned) [Compound 277, (S) or (R)-6-[[1-[3-[(2,2-difluoro-1,3-benzodioxol-5-yl)-methyl-carbamoyl]phenyl]-3-(trifluoromethyl)-6,7-dihydro-4H-pyrano[4,3-c]pyrazol-7-yl]oxy]pyridine-3-carboxylic acid], the negative logarithm of the EC50 (pEC50) is over 6.00.
As to `CN(C(=O)c1cccc(-n2nc(C(F)(F)F)c3c2C(Oc2ccc(C(=O)O)cn2)COC3)c1)c1ccc2c(c1)OC(F)(F)O2` (single isomer, unassigned) [Compound 278, (R) or (S)-6-[[1-[3-[(2,2-difluoro-1,3-benzodioxol-5-yl)-methyl-carbamoyl]phenyl]-3-(trifluoromethyl)-6,7-dihydro-4H-pyrano[4,3-c]pyrazol-7-yl]oxy]pyridine-3-carboxylic acid], the pEC50 is over 6.00.
Consider `CN(C(=O)c1cccc(-n2nc(C(F)(F)F)c3c2C(Oc2ccc(C(=O)O)cc2)CCC3)c1)c1ccc2c(c1)OCC2` (single isomer, unassigned) [Compound 279, (S) or (R)-4-[[1-[3-[2,3-dihydrobenzofuran-6-yl(methyl)carbamoyl]phenyl]-3-(trifluoromethyl)-4,5,6,7-tetrahydroindazol-7-yl]oxy]benzoic acid], for which the pEC50 was over 6.00.
As for `CN(C(=O)c1cccc(-n2nc(C(F)(F)F)c3c2C(Oc2ccc(C(=O)O)cc2)CCC3)c1)c1ccc2c(c1)OCC2` (single isomer, unassigned) [Compound 280, (R) or (S)-4-[[(1-[3-[2,3-dihydrobenzofuran-6-yl(methyl)carbamoyl]phenyl]-3-(trifluoromethyl)-4,5,6,7-tetrahydroindazol-7-yl]oxy]benzoic acid], the negative-log EC50 (pEC50) was over 6.00.
The same measure for `CN(C(=O)c1cccc(-n2nc(C(F)(F)F)c3c2C(Oc2ccc(C(=O)O)cc2)COC3)c1)c1ccc2c(c1)OCC2` (single isomer, unassigned) [Compound 282, (R) or (S)-4-[[1-[3-[2,3-dihydrobenzofuran-6-yl(methyl)carbamoyl]phenyl]-3-(trifluoromethyl)-6,7-dihydro-4H-pyrano[4,3-c]pyrazol-7-yl]oxy]benzoic acid]: over 6.00; for `CN(C(=O)c1cccc(-n2nc(C(F)(F)F)c3c2C(Oc2ccc(C(=O)O)cc2)COC3)c1)c1ccc2c(c1)OCC2` (single isomer, unassigned) [Compound 283, (S) or (R)-4-[[1-[3-[2,3-dihydrobenzofuran-6-yl(methyl)carbamoyl]phenyl]-3-(trifluoromethyl)-6,7-dihydro-4H-pyrano[4,3-c]pyrazol-7-yl]oxy]benzoic acid]: 5.70 to 6.00.

The record behind these values is patent publication US10968225B2, “Compounds and compositions for the treatment of cystic fibrosis” (Fondazione Istituto Italiano Di Tecnologia, priority 2017, dated 2021).
